Measurements taken from paper PMC10447463, “Data-mining unveils structure–property–activity correlation of viral infectivity enhancing self-assembling peptides” (Nature Communications, 2023).
Where “and” joins values, the source holds several entries; their conditions need not be identical. Equal entries are not always repeated.

Key:
[1] = Aggregate analysis by widefield fluorescence microscopy; format: physicochemical; conditions: for Number of Aggregates / Aggregate Number: ThT-stained aggregates > 10 µm2 in 1330 µm × 1330 µm, 1 mg/mL 1 d, diluted to 0.1 mg/mL with 50 µM ThT, 3D object counter ImageJ, triplicate
Procedure: 4 µL of 1 mg/mL peptide fibrils solution is added to a 20 µL, 50 µM ThT–solution in PBS. The mixture is incubated for 15 min at RT to allow binding of ThT dye with β–sheet rich structures. For reference PBS (4 µL) was added instead of peptide fibril solution. The samples were placed in black UV Star® 384 microliter well–plates (Greiner bio–one). Fluorescence spectra were recorded on an Infinite® M1000 PRO microplate reader (Tecan) at λem = 488 nm upon excitation at λex = 440 nm with 10 nm bandwidths and multiple reads per well (3×3). Measurements were repeated in triplicates and averaged with standard deviation. A peptide fibril was considered as ThT-active if the fluorescence intensity was at least twice as strong compared to the control (PBS containing 10% DMSO). Zeta-Potential. For the determination of the surface charge of aggregated peptides zeta-potential measurements were conducted with a Zetasizer Nano ZS, Malvern Instruments. Unless stated otherwise the peptides were dissolved from DMSO (10 mg/mL) in PBS (pH 7.4) to concentration of 1 mg/mL and incubated for 1d at RT. Just before the measurement the 60 µL of the peptides were further diluted in 600 µL KCl (aq, 1 mM) in a 1 mL disposable folded capillary cells (DTS–1060, Zetasizer Nano series, Malvern). The zeta potential of the peptides was derived from the electrophoretic mobility based on the Smoluchowski formula. All measurements were averaged over two individually performed experiments and conducted in triplicates for each sample. Aggregate analysis. […] Furthermore, fluorescence microscopy was conducted by staining 1 µL preformed fibrils (1 mg/mL) with 9 µL ThT (50 µM). Brightfield microscopy was performed simultaneously to evaluate aggregation also for non ThT-active fibrils. The measurements were performed on a Leica DMi8 microscope with 10x air objective and equipped with a Leica MC170 HD camera with a filter setting λem = 527/30 nm upon excitation at λex = 480/40 nm) and processed with the Leica LASX software. To quantify size and number of microscopic aggregation of particles > 10 µm^2 at least 3 independently measured images were analyzed via the 3D object counter analysis tool of ImageJ, v 1.53f51. Sum–frequency generation. The SFG experiments were carried out with a femtosecond Ti: Sapphire amplified laser system (Spitfire Ace, Spectra–Physics, 800 nm, 40 fs, 1 kHz) with 5 W output power. We used 2 W to pump an optical parametric amplifier (TOPAS, light conversion) with a non–collinear difference frequency generation stage to generate broadband IR pulses. Another 1 W of the laser output passed through an etalon to generate narrowband visible pulses (10 cm^-1). The incident angles of the visible and IR beams were 36° and 41° with respect to the surface normal, respectively. The visible (13 µJ) and IR (5 µJ) pulses were overlapped spatially and temporally at the sample position. Subsequently, the generated SFG pulse was guided into a spectrograph (Acton SP 300i, Princeton Instruments), and detected with an EMCCD (Newton, Andor Technology). To avoid IR absorption of water vapor, we purged N2 for the measurement. All spectra were collected in the ssp (denoting s-, s- and p-polarized SFG, visible and IR, respectively) polarization combination. The spectra were normalized to the non–resonant signal taken from z–cut quartz after subtracting a background spectrum.
Table S8 Summary of aggregate analysis from widefield microscopy measurements (Figure S32). The Number of aggregated peptides, the median size area, average size area
and the cumulative total size area of all particles (> 10 µm2) in an area of 1330 µm × 1330 µm was determined via automated 3D object counting (ImageJ) in triplicate
measurements (Std. Dev.).
Aggregate Std. Dev. Std. Dev. Std. Dev. Std. Dev.
Sequence Abs. Inf. / Std. Dev. / Count Rate / Std. Dev. Number Aggregate Median Area Median Area Average Area Average Area Total Area/ Total Area/ […]

TZM-bl cells = format: cell-based; conditions: CellTiter-Glo, mean of n = 3 replicates
Procedure: The cell viability after addition of peptides to TZM–bl cells was studied via the CellTiter–Glo assay. To this end, 10,000 cells were seeded and on the next day serial diluted peptides were added. After 3 days the supernatant was removed and 100 µL CellTiter–Glo Reagent 1:1 diluted in PBS was added. After 10 min 50 µL was transferred to white microplate and luminescence was recorded by Orion microplate luminometer.
2. Cell Viability of Representatively Selected Peptides
Figure S 2 Cell Viability normalized to 100% metabolic activity as determined by CellTiterGlo Assay of 57 representatively selected peptides from the library. The selection represents infectivity enhancing and not […]
concentration. Error bars indicate standard deviation from triplicate measurements. Source data for Figure S2 […]
Figure S3 Cell Viability normalized to 100% metabolic activity determined by CellTiterGlo Assay of 20 peptides reported in literature. 33,34,43–48,35–42 Cell viability (> 80%) is maintained for all peptides at 1.3 µM concentration regardless of the preparation method, which is A PNF formation method by dilution of 10 mg/mL peptide stock in DMSO in PBS to 1 mg/mL or B preparation according to literature reported protocol (SI Section 8). Error bars indicate standard deviation from triplicate measurements. Source data for Figure S3 is provided.

[2] = previously reported peptides only; ref sieste 2021 or Schilling2019; cited from earlier work
Source text: Supplement 41467_2023_40663_MOESM7_ESM.zip/FigS17.csv, table | column: Conversion Rate / % ( from sieste 2021 or Schilling2019)

## CKAKAQANMWQ
[1]
  Number of Aggregates / Aggregate Number: 6

## CKFKFQFW
[1]
  Number of Aggregates / Aggregate Number: 517

## CKFKQFFNM
[1]
  Number of Aggregates / Aggregate Number: 704 ± 90 and 704

## CKIKIQI
[1]
  Number of Aggregates / Aggregate Number: 317 ± 36 and 317

## CKIKQII
[1]
  Number of Aggregates / Aggregate Number: 76 ± 12 and 76

## CKIKQIINMWQ
[1]
  Number of Aggregates / Aggregate Number: 195

## CQFQFQF
[1]
  Number of Aggregates / Aggregate Number: 46

## CSISIQI
[1]
  Number of Aggregates / Aggregate Number: 123

## HHHHKIKIKIKIWWWW
[1]
  Number of Aggregates / Aggregate Number: 446

## HHHHKIKIKIKIWWWW [TM4]
TZM-bl cells; peptide 0.26 µM
  viability 0.26 µM: 89.63
TZM-bl cells; peptide 1.3 µM
  viability 1.3 µM: 83.12
TZM-bl cells; peptide 6.5 µM
  viability 6.5 µM: 68.76
[1]; Fig S8 panels A, C
  Avg Area in 3 *(1330 µm *1330 µm): 50.02
  Log 10 Number of aggregates in 3 * (1330 µm *1330 µm): 2.649
  Median Area in 3 * (1330 µm *1330 µm): 24.51
  log Avg Area in 3 * ( (1330 µm *1330 µm)): 1.699
  log Median Area in 3 * ( (1330 µm *1330 µm)): 1.389
  log Total Area of all particles in 3 * (1330 µm *1330 µm): 4.348
[1]; Fig S8 panels A, C, 3 fields of 1330 µm x 1330 µm
  Number of aggregates in 3 * (1330 µm *1330 µm): 445.7
[1]; Fig S8 panels B, D, average aggregate area, 3 fields of 1330 µm x 1330 µm
  Avg Area in 3 *(1330 µm *1330 µm): 50.02
[1]; Fig S8 panels B, D, median aggregate area, 3 fields of 1330 µm x 1330 µm
  Median Area in 3 * (1330 µm *1330 µm): 24.51
[1]; Fig S8 panels B, D, total area of all particles, 3 fields of 1330 µm x 1330 µm
  Total Area of all particles in 3 * (1330 µm *1330 µm): 22293.86733
[1]; Fig S8 panels B, D, widefield fluorescence microscopy, 3 fields of 1330 µm x 1330 µm
  Number of aggregates in 3 * (1330 µm *1330 µm): 445.7
[2]
  Conversion Rate / % ( from sieste 2021 or Schilling2019): 96%

## HHHHKIKIKIKIYYYY
[1]
  Number of Aggregates / Aggregate Number: 147

## HHHHKIKIQINMYYYY
[1]
  Number of Aggregates / Aggregate Number: 234

## KIKIQIC
[1]
  Number of Aggregates / Aggregate Number: 82

## RGDSGGGGGGKIKIQIC
[1]
  Number of Aggregates / Aggregate Number: 72
